Laboratory results from the NIST ThermoML archive (doi:10.1016/j.fluid.2018.07.022).

Conditions: Liquid, Pendant drop shape

[HH] [hydrogen] + O
Conditions	interfacial tension [mN/m]
298.03 K, 500 kPa	72.3
298.03 K, 1000 kPa	72.9
298.04 K, 2000 kPa	73
298.04 K, 5000 kPa	72.6
298.04 K, 7500 kPa	72.2
298.04 K, 10100 kPa	71.9
298.04 K, 25000 kPa	70.3
298.05 K, 3500 kPa	72.8
298.05 K, 45200 kPa	68.7
298.06 K, 15000 kPa	71.3
298.06 K, 20100 kPa	70.8
298.06 K, 30100 kPa	69.8
298.09 K, 39900 kPa	69.1
322.9 K, 1000 kPa	69.3
322.98 K, 2000 kPa	69.3
322.99 K, 5000 kPa	68.9
323 K, 3500 kPa	69.1
323 K, 10000 kPa	68.3
323 K, 15000 kPa	67.8
323 K, 40100 kPa	65.8
323.01 K, 20000 kPa	67.2
323.01 K, 25000 kPa	66.8
323.02 K, 500 kPa	68.9
323.02 K, 30100 kPa	66.5
372.73 K, 15000 kPa	59
372.74 K, 500 kPa	59.8
372.77 K, 1000 kPa	59.7
372.77 K, 25200 kPa	58.5
372.77 K, 29800 kPa	58.1
372.78 K, 2000 kPa	59.7
372.78 K, 40100 kPa	57.6
372.81 K, 10000 kPa	59.3
372.85 K, 20100 kPa	58.7
372.87 K, 5000 kPa	59.5
448.02 K, 2000 kPa	44.1
448.04 K, 1500 kPa	44
448.24 K, 5000 kPa	43.8
448.28 K, 15000 kPa	43.4
448.29 K, 10000 kPa	43.7
448.31 K, 25000 kPa	43.2
448.31 K, 30100 kPa	42.9
448.33 K, 20000 kPa	43.3
448.35 K, 40100 kPa	43.2
